Results from ChEMBL document CHEMBL4373715, “Discovery and Biological Evaluations of Halogenated 2,4-Diphenyl Indeno[1,2-b]pyridinol Derivatives as Potent Topoisomerase IIα-Targeted Chemotherapeutic Agents for Breast Cancer” (J Med Chem, 2019).

How the values were obtained:
[1] = biological target: DNA topoisomerase 2-alpha (Homo sapiens) (UniProt P11388); experiment: Inhibition of recombinant human topoisomerase 2alpha-mediated relaxation of supercoiled pBR322 DNA at 20 uM measured after 30 mins by ethidium bromide staining based agarose gel electrophoresis relative to control
[2] = biological target: T1, DNA topoisomerase 1 (Homo sapiens) (UniProt P11387); experiment: Inhibition of recombinant human topoisomerase 1-mediated relaxation of supercoiled pBR322 DNA at 100 uM measured after 30 mins by ethidium bromide staining based agarose gel electrophoresis relative to control
T1 sequence (whole entry): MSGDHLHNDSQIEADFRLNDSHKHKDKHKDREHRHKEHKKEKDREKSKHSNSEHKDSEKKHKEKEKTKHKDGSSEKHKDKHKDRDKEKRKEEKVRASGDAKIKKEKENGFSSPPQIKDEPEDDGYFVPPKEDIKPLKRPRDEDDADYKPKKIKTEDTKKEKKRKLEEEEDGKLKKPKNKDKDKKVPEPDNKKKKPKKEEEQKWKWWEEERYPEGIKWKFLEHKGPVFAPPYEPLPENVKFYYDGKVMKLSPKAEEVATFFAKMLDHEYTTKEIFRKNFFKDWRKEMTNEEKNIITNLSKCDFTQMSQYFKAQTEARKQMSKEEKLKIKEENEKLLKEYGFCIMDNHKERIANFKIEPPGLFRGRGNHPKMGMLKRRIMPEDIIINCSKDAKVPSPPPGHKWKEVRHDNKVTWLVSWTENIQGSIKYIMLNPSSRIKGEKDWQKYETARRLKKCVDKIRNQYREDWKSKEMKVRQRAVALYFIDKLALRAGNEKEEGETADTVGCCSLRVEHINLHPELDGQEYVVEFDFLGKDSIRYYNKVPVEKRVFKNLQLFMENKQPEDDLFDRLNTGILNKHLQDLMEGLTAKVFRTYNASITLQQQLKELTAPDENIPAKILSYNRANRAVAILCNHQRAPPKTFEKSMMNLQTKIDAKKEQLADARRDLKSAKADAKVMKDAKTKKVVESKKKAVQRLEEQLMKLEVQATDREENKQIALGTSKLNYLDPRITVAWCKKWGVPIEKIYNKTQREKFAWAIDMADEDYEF

HCT-15 = experiment: Antiproliferative activity against human HCT15 cells measured after 72 hrs by EZ-Cytox assay; type: functional, cell-based; conditions: HCT-15, 72 h
HeLa = experiment: Antiproliferative activity against human HeLa cells measured after 72 hrs by EZ-Cytox assay; type: functional, cell-based
[3] = biological target: DNA topoisomerase 2-alpha (Homo sapiens) (UniProt P11388); experiment: Inhibition of recombinant human topoisomerase 2alpha-mediated relaxation of supercoiled pBR322 DNA at 100 uM measured after 30 mins by ethidium bromide staining based agarose gel electrophoresis relative to control
T47D = experiment: Antiproliferative activity against human T47D cells measured after 72 hrs by EZ-Cytox assay; type: functional, cell-based
DU-145 = experiment: Antiproliferative activity against human DU145 cells measured after 72 hrs by EZ-Cytox assay; type: functional, cell-based; conditions: DU-145, 72 h

Chain of DNA topoisomerase 2-alpha (Homo sapiens) (P11388 whole entry): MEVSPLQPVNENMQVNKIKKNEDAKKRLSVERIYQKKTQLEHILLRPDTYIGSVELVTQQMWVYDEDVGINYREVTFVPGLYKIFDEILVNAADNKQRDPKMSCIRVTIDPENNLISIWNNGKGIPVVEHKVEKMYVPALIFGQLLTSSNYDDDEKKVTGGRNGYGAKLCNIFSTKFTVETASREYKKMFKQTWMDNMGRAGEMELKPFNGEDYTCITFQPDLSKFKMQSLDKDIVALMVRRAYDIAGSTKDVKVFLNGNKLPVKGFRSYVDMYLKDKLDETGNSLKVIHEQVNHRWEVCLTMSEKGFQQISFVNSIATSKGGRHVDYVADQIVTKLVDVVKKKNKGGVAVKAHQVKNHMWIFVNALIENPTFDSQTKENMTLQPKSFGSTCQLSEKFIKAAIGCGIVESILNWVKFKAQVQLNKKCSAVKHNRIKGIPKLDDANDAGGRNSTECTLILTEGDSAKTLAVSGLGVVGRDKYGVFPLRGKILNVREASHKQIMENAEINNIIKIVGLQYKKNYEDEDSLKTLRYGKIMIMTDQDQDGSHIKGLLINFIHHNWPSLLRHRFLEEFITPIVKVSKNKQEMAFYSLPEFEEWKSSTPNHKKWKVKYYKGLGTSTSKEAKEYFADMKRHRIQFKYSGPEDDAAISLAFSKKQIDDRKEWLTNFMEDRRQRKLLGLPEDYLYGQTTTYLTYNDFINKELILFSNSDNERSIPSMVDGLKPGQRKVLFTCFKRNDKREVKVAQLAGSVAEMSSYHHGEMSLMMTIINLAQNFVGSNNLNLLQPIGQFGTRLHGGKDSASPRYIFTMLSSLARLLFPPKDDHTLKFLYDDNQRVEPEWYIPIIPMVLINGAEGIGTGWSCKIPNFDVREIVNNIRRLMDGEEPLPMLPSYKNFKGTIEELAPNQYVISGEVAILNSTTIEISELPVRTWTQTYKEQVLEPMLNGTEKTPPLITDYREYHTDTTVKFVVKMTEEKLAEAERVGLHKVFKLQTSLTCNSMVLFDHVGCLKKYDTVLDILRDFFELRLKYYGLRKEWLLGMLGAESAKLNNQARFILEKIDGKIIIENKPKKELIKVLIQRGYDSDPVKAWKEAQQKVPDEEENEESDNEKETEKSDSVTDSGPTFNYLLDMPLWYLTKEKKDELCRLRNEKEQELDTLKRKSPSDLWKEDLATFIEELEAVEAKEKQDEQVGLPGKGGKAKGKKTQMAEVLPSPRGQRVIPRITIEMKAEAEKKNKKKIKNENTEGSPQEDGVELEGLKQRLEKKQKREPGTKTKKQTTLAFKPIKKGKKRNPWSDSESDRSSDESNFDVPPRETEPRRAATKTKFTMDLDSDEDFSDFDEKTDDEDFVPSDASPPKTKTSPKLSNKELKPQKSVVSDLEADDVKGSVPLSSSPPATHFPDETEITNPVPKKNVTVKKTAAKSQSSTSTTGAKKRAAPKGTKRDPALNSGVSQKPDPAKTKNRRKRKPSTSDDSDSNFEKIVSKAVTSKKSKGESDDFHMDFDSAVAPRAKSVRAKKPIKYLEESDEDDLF

SMILES | inhibition [1] [%] | inhibition [2] [%] | inhibition [3] [%] | IC50 (HCT-15) [nM] | IC50 (HeLa) [nM] | IC50 (T47D) [nM] | IC50 (DU-145) [nM]
Oc1cccc(-c2cc(-c3cccc(F)c3)nc3c2Cc2ccc(O)cc2-3)c1 | 4.9 | 17.1 | 44.2 | 1190 | 3450 | 540 | 2170
Oc1ccc2c(c1)-c1nc(-c3cccc(C(F)(F)F)c3)cc(-c3ccccc3O)c1C2 | 2.8 | 0 | 98.9 | 2950 | 5250 | 510 | 1630
Oc1ccccc1-c1cc(-c2ccc(F)cc2)nc2c1Cc1c(O)cccc1-2 | 0 | 0 | 67 | 4310 | 32000 | 610 | 2360
Oc1cccc(-c2cc(-c3ccccc3Cl)nc3c2Cc2cc(O)ccc2-3)c1 | 32.3 | 5.6 | 100 | 1.33 | 910 | 780 | 810
Oc1ccccc1-c1cc(-c2ccc(Cl)cc2)nc2c1Cc1c(O)cccc1-2 | 7 | 14.5 | 80.3 | 2310 | 1960 | 1250 | 610
Oc1ccccc1-c1cc(-c2ccccc2)nc2c1Cc1cccc(O)c1-2 | 0.1 | 0.1 | 95.8 | 1360 | 2950 | 2440 | 170
Oc1cccc(-c2cc(-c3ccccc3)c3c(n2)-c2cc(O)ccc2C3)c1 |  | 0 | 3.5 | > 50000 | > 50000 | > 50000 | 420
Oc1ccc(-c2cc(-c3ccccc3C(F)(F)F)nc3c2Cc2cccc(O)c2-3)cc1 |  | 3 | 2.9 | > 50000 | > 50000 | 1440 | > 50000
Oc1ccc(-c2cc(-c3ccc(Cl)cc3)nc3c2Cc2cccc(O)c2-3)cc1 |  | 0.2 | 26.2 | > 50000 | > 50000 | > 50000 | 2800

Further lines, with some results ahead:

inhibition [1] [%] | inhibition [2] [%] | inhibition [3] [%] | SMILES | IC50 (HCT-15) [nM] | IC50 (HeLa) [nM] | IC50 (T47D) [nM] | IC50 (DU-145) [nM]
1.3 | 4.6 | 75.7 | Oc1cccc2c1Cc1c(-c3ccccc3)cc(-c3ccccc3)nc1-2 | 3390 | 4180 | 1770 | 2710
29 | 10.2 | 85.2 | Oc1cccc(-c2cc(-c3cccc(C(F)(F)F)c3)nc3c2Cc2cc(O)ccc2-3)c1 | 2220 | 2030 | 1330 | 1420
27 | 3.7 | 83 | Oc1cccc(-c2cc(-c3cccc(Cl)c3)c3c(n2)-c2ccc(O)cc2C3)c1 | 25300 | 7740 | 22600 | 6290
0.3 | 8.9 | 71.9 | Oc1cccc(-c2cc(-c3cccc(Cl)c3)c3c(n2)-c2c(O)cccc2C3)c1 | > 50000 | > 50000 | > 50000 | 17100
4.4 | 26.8 | 97.5 | Oc1ccc2c(c1)Cc1c(-c3ccccc3O)cc(-c3ccc(Cl)cc3)nc1-2 | 3970 | 3840 | 620 | 650
0 | 8.2 | 74.8 | Oc1ccc2c(c1)Cc1c(-c3ccccc3O)cc(-c3ccccc3)nc1-2 | 2080 | 27400 | 2440 | 1000
 | 8 | 17.1 | Oc1ccc(-c2cc(-c3ccc(F)cc3)nc3c2Cc2cc(O)ccc2-3)cc1 | 4400 | 3840 | 1850 | 1590
